Entries after “also recorded” stand apart in the source; their conditions may differ. Like-named read-outs stand apart in the source and are kept apart here. Residues, ends and D or L forms follow the SMILES beside them. No end group written: not given here. *: point of attachment. X1 = COc1cccc2c1C(=O)c1c(O)c3c(c(O)c1C2=O)CC(O)(C(=O)CO)C[C@@H]3O[C@H]1C[C@H](N*)[C@H](O)[C@H](C)O1; Acm = CC(=O)NC*

The test system of one data set is Melanoma tumor cells. In words: Melanoma tumor development (lung tumor colonies) in mice. It is filed as in vivo. The settings on record: intraperitoneally 24 and 96 hours after tumor implantation, 18 μM/kg, versus buffer. How it is done: This experiment was designed to evaluate whether the conjugation of the peptide to doxorubicin altered its ability to prevent wild-type, nonresistant tumor development in mice. Melanoma tumor cells were injected into mice. The animals (5 in each group) were treated intraperitoneally 24 and 96 hours after tumor implantation with either buffer alone, Dox-P, the Cys(Acm)-Ser-Val-Thr-Cys(Acm)-Gly (SEQ ID NO: 6) peptide, or Dox, at a concentration of 18 μM/kg. The mice were sacrificed and the melanoma tumor colonies on the lung were counted. […] Additionally, the tumor colonies in the Dox-P and the Dox groups were 2-5 fold smaller than in the buffer group.

Another data set has as its system Lewis Lung Carcinoma. In words: In vitro LD50 from dose response curves (ALAMAR BLUE cell viability). It is filed as cell-based. The settings on record: dose at which half of the cells die. (In general: Resazurin is reduced to fluorescent resorufin, in cell work by metabolically active cells.)
A further data set has as its system Wild-type CHO Cells. In words: Cell viability / in vitro LD50 on wild-type CHO cells (ALAMAR BLUE). The data set is classed as cell-based. As for the experimental part:
(§1) Doxorubicin and multidrug-resistant CHO cells were cultured using standard tissue culture conditions: 37° C., DMEM media, serum free conditions, with 5% CO2 for pH adjustment. The cells were treated for 24 hours with either doxorubicin or Dox-P, the peptide conjugate prepared in Example 1, at concentrations of 0.25, 0.5, 0.75, and 1.0 mM. Untreated cells were used as a negative control.
Cell viability was measured using the ALAMAR BLUE™ assay (available from Biosource International, Camarillo, Calif.). The assay quantitatively measures the proliferation of cell lines and can establish the relative cytotoxicity of chemical agents. The assay incorporates a fluorometric/colorimetric growth indicator based on detection of metabolic activity. The system incorporates an oxidation-reduction (redox) indicator that both fluoresces and changes color in response to chemical reduction of growth medium resulting from cell growth. This causes the redox indicator to change from its oxidized, non-fluorescent, blue form to its reduced, fluorescent, red form. Data can be collected using either fluorescence-based instrumentation (530-560 nm excitation wavelength and 590 nm emission wavelength) or absorbance-based instrumentation (570 nm and 600 nm). […]
The LD50, the dose at which half of the cells die, was calculated from Dox and Dox-P dose response curves for five different cell lines, as shown in Table 1.

For the next data set, the system named is B16-F10 Melanoma. In words: In vitro LD50 from dose response curves (ALAMAR BLUE cell viability). The data set is classed as cell-based. The settings on record: dose at which half of the cells die.
Another data set relates to Human Breast Carcinoma. In words: In vitro LD50 from dose response curves (ALAMAR BLUE cell viability). The data set is classed as cell-based. The settings on record: dose at which half of the cells die.
The subject of data set [1] is Doxorubicin and multidrug-resistant CHO Cells. In words: Cell viability / in vitro LD50 on drug-resistant CHO cells (ALAMAR BLUE). The settings on record: 24 hours, 0.25, 0.5, 0.75 and 1.0 mM. The data set is classed as cell-based. As for the experimental part: as §1
Cell viability was measured using the ALAMAR BLUE™ assay (available from Biosource International, Camarillo, Calif.). The assay quantitatively measures the proliferation of cell lines and can establish the relative cytotoxicity of chemical agents. The assay incorporates a fluorometric/colorimetric growth indicator based on detection of metabolic activity. The system incorporates an oxidation-reduction (redox) indicator that both fluoresces and changes color in response to chemical reduction of growth medium resulting from cell growth. This causes the redox indicator to change from its oxidized, non-fluorescent, blue form to its reduced, fluorescent, red form. Data can be collected using either fluorescence-based instrumentation (530-560 nm excitation wavelength and 590 nm emission wavelength) or absorbance-based instrumentation (570 nm and 600 nm).

A further data set has as its system B16-F10 melanoma cells. In words: Adhesion of B16-F10 melanoma cells to coated wells. The data set is classed as cell-based. The settings on record: wells covered with 40 μg/ml. How it is done:
An adhesion study was performed to evaluate the adhesion of B16-F10 melanoma cells (a nonresistant cell line) to doxorubicin and the doxorubicin-peptide conjugate of Example 1. In a 96 well plate, duplicate wells were covered with 40 μg/ml either TSP, Dox-P, the Cys(Acm)-Ser-Val-Thr-Cys(Acm)-Gly (SEQ ID NO: 6) peptide, Dox, the scrambled peptide Val-Cys-Thr-Gly-Ser-Cys (SEQ ID NO: 3), the Cys(Acm)Ser-Val-Thr-Cys-(Acm)-Gly (SEQ ID NO: 6) peptide with a d orientation, or 1% bovine serum albumin (BSA). The wells were dried out overnight and then blocked with BSA. 100 μl of a suspension containing 2×10^5 B16-F-10 melanoma cells were plated in the protein covered wells and incubated at 37° C. for 20 minutes to 1 hour. The non-adherent cells were removed and the wells were washed with a Hepes buffer. The adherent cells were fixed with 2.5% glutaraldehyde for 10 minutes and stained with 0.2% Giemsa. The stain was washed off and the cells were counted in a field of 1 mm square. Cells adhering to BSA were considered background.

Data set [2] has as its system Doxorubicin and multidrug-resistant CHO Cells. In words: Coadministration of peptides and doxorubicin on resistant CHO cells. The data set is classed as cell-based. The settings on record: peptide coadministered with doxorubicin, not linked. As for the experimental part: Doxorubicin and multidrug-resistant CHO cells were treated with a 7 coadministration of peptides and doxorubicin. In this example the peptides were not linked to the doxorubicin, but were only administered at the same time.

The mark [3] stands for this setting: mice, 68 mg/kg (same number of doxorubicin molecules as Dox 30 mg/kg), 3 mice treated.

Regarding `COc1cccc2c1C(=O)c1c(O)c3c(c(O)c1C2=O)C[C@@](O)(C(=O)CO)C[C@@H]3O[C@H]1C[C@H](N)[C@H](O)[C@H](C)O1` [Dox, doxorubicin, reference compound], the “Melanoma tumor development (number of lung tumor colonies / lung metastasis)” value in the data set on Melanoma tumor cells is “inhibit the development of lung metastasis; also recorded: effective at preventing tumor development”. In addition, the “In Vitro LD50” value in the data set with Lewis Lung Carcinoma is reported as 0.20 mM; with Wild-type CHO Cells (Wild-type CHO Cells, dose at which half of the cells die), 1.0 mM; in the data set on B16-F10 Melanoma, 0.30 mM; in the data set on Human Breast Carcinoma, 1.0 mM. Besides, where the note is “mice, 30 mg/kg, 3 mice treated”, the “Toxicity Results: survival” value amounted to 3 mice died^1. For the same compound, the “Toxicity Results: body weight change” value (mouse, in vivo, 30 mg/kg) is “significant weight loss”. Further, the “Effect on drug-resistant CHO cell viability (dose response)” value in data set [1] is “negligible effect”.
For `COc1cccc2c1C(=O)c1c(O)c3c(c(O)c1C2=O)CC(O)(C(=O)CO)C[C@@H]3O[C@H]1C[C@H](NC(=O)CNC(=O)[C@H](CSCNC(C)=O)NC(=O)[C@@H](NC(=O)[C@@H](NC(=O)[C@H](CO)NC(=O)[C@H](CSCNC(C)=O)NC(C)=O)C(C)C)[C@@H](C)O)[C@H](O)[C@H](C)O1` (stereo partly drawn) [Dox-P] (Ac-C(Acm)SVTC(Acm)G-X1), in the data set with Melanoma tumor cells, the “Melanoma tumor development (number of lung tumor colonies / lung metastasis)” value is “inhibit the development of lung metastasis; also recorded: effective at preventing tumor development”. In addition, in the data set with Wild-type CHO Cells (24 hours, 0.25-1.0 mM, compared with Dox alone), the “Effect on wild-type CHO cell viability” value is “appears to function more effectively against wild-type CHO cells than Dox alone”. Moreover, the “Adhesion of B16-F10 melanoma cells” value in the data set with B16-F10 melanoma cells is “does not destroy its adhesive activity”. Also, under setting [3], the “Toxicity Results: body weight change” value was “some small weight gain” and the “Toxicity Results: survival” value is given as 3 mice lived. Besides, the “Effect on drug-resistant CHO cell viability (dose response)” value in data set [1] is recorded as “dramatic dose-response effect”.
Regarding ASVTAR, the “Effect of peptide on doxorubicin toxicity of resistant CHO cells” value in [2] was “shows a dose-response effect”.
Turning to “Cys(Acm)-Ser-Val-Thr-Cys(Acm)-Gly (C(Acm)SVTC(Acm)G) [thrombospondin-derived hexapeptide with cysteine sulfur protected by acetamidomethyl (Acm) groups]”, in [2], the “Effect of peptide on doxorubicin toxicity of resistant CHO cells” value is reported as “did not show any effect”. Further, the “Melanoma tumor development (number of lung tumor colonies / lung metastasis)” value in the data set with Melanoma tumor cells is recorded as “lower number of tumors than buffer alone”; with Melanoma tumor cells (listed as peptide), “inhibit the development of lung metastasis”.
